The values below come from patent publication EP4591861A1 (IBIOME Biotechnology Co., Ltd., priority 2022, dated 2024).

The subject of assay [1] is AAD-induced depression model. The experiment in a line: Forced swimming test in AAD-induced depression model. It is filed as in vivo, mice. The settings on record: for immobility time: forced swimming, AAD mice, 2 hours after administration. As to the method: The forced swimming test apparatus is a transparent 20×30cm round barrel filled with pure water, with a diameter of 20cm and a water depth of 15cm. The pure water temperature is 23-25°C. A camera is installed in front of the apparatus and is flush with the water surface. After the mouse is placed in the water, a video of its activities in the water is collected for 6 minutes. The last 4 min of the video were analyzed to determine the immobility time of the mouse. Immobility behavior is defined as the behavior of the mouse floating, not struggling, or relying only on occasional swinging to maintain floating. The longer the immobility time, the more severe the depression.
(§1) 11, 12, and 13. […] At the same time, it still has a significant antidepressant effect at concentrations of 0.3 mg/kg, 1 mg/kg, and 10 mg/kg.

Assay [2] relates to AAD-induced depression model. In words: Sucrose preference test in AAD-induced depression model. The settings on record: AAD mice; 0.1 mg/kg intravenous; versus AAD mice + normal saline group (P<0.01). The assay is classed as in vivo. As to the method: as §1
For the next assay, the target named is T1, human BBOX1 (Homo sapiens, UniProt O75936).
T1 sequence (O75936 1-387): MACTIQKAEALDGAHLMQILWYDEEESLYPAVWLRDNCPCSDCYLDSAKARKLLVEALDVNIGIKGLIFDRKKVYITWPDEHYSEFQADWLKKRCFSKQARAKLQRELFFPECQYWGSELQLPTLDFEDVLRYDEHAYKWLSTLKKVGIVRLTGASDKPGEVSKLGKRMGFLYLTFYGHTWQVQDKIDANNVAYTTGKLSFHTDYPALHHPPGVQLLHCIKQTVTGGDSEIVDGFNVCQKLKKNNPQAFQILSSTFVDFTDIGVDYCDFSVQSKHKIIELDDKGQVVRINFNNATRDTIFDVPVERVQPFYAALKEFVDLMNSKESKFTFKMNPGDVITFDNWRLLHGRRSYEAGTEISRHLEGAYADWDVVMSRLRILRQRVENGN
The settings on record: binding to the active site of human BBOX1; background statement; cited from earlier work.

Assay [3] relates to CRS-induced depression model. In words: Sucrose preference test in CRS-induced depression model. The settings on record: CRS mice; 0.1 mg/kg intravenous; versus CRS + normal saline group (P<0.01).
Description: After adapting to the environment, from day 0, the CRS mouse group was subjected to chronic, unpredictable mild stimulation for 21 days to simulate the chronic low-intensity stress received by humans in daily life. Every day, one stimulus was selected from the day and night to treat the mice, and the order was random and continuous without repetition, so that the mice could not predict the appearance of the stimulus (Table 1).
Two hours after administration, the mice were subjected to forced swimming and tail suspension tests, and the immobility time of the mice in each group in the forced swimming and tail suspension tests was compared.
The sucrose preference test is used to evaluate the sucrose water preference of mice, which can reflect the degree of anhedonia of mice. In the entire animal experiment, a total of two sucrose preference tests were conducted. Before modeling, the sucrose preference coefficient of all mice was measured by the sucrose preference tests to ensure that the mice in the experiment were in the same state. After the test, the sucrose preference tests were formally carried out, including the adaptation training part and the test part. […] After the adaptation, fasting and water deprivation for 24 hours, and then the sucrose preference coefficient was measured. […]
For assay [4], the system named is Cort-induced depression model. The experiment in a line: Sucrose preference test in Cort-induced depression model. The settings on record: Cort mice; 0.1 mg/kg intravenous; versus Cort mice + normal saline group (P<0.01).
Protocol: The sucrose preference test is used to evaluate the sucrose water preference of mice, which can reflect the degree of anhedonia of mice. In the entire animal experiment, a total of two sucrose preference tests were conducted. Before modeling, the sucrose preference coefficient of all mice was measured by the sucrose preference tests to ensure that the mice in the experiment were in the same state. After the test, the sucrose preference tests were formally carried out, including the adaptation training part and the test part. In the training, two bottles of 1% (w/v) sucrose solution were placed in each cage of mice in the first 24 hours, and one of the bottles was replaced with pure water in the next 24 hours. After the adaptation, fasting and water deprivation for 24 hours, and then the sucrose preference coefficient was measured. In the test, mice can only choose two bottles weighed in advance, one bottle is 1% (w/v) sucrose solution, and the other bottle is pure water. After fasting for 24 hours, take away the two bottles and weigh them, and record the total liquid consumption, sucrose water consumption and pure water consumption of the mice. The calculation method of sucrose preference coefficient is: sucrose preference coefficient (%) = sucrose water consumption/ (sucrose water consumption + pure water consumption) × 100%. […]
Assay [5] has as its system AAD-induced depression model. In words: Tail suspension test in AAD-induced depression model. The settings on record: AAD mice, 2 hours after administration. It is filed as in vivo. Here is the method:
The tail suspension test uses tape to suspend mice by their tails in a position where they cannot escape or grab onto nearby surfaces. A camera is mounted in front of the mice to record the activity of the mice for 6 minutes while they are suspended. The last 4 min of the video is then analyzed to determine the time the mice spend immobile. This test is based on the idea that animals that are subjected to short-term, unavoidable stress will develop an immobile posture, and the more severe the depressive phenotype, the less time they will spend trying to escape.
as §1

Where [6] appears, read: 0.1 mg/kg intravenous, versus AAD mice + normal saline group.

On to `CC(CCC(=O)[O-])[N+](C)(C)C` (stereo not shown) [4-TMAP, 4-(trimethylammonio) pentanoate], for which the “duration of the antidepressant effect after a single administration” value in assay [1] (mouse, in vivo, iv, 0.1 mg/kg) lay in the range of 24 to 36 h. Besides, the sucrose preference result in assay [2], in assay [3] and in assay [4] was “significantly higher” each time. Also, the dissociation constant entry on human BBOX1 is reported as “low”.
`O=c1ccc2ccc(OCCCCN3CCN(c4cccc5sccc45)CC3)cc2[nH]1` [Brexpiprazole]: the immobility time result in assay [1] (setting [6]) was “cannot change the depressive-like behavior”; in assay [1] (3 mg/kg intravenous), “significantly reducing”; in assay [5] (setting [6]), “cannot change the depressive-like behavior”; in assay [5] (3 mg/kg intravenous) it was “significantly reducing”. Moreover, the sucrose preference entry in assay [2] is reported as “cannot change the depressive-like behavior”.
